# Earlier results as cited in US20200129574A1 (priority 2018, published 2020).
# Legend:
# prostate cancer cells = details: in vitro
# [1] = test system: several tumor cell types, including prostate cancer cell lines, and primary prostate tumor lines; details: several tumor cell types incl. prostate cancer cell lines and primary prostate tumor lines
substance,measurement,setting,value
Vitamin D,expression of a6 and 134 integrins,a6 and 134 integrins,decreased expression
same,effect on invasion of prostate cancer cells,prostate cancer cells,decrease invasion
same,effect on proliferation and differentiation of tumor cells,[1],inhibit proliferation and promote differentiation
